Assay [1] addresses T1, Aβ40 (Homo sapiens, UniProt P05067).
T1 construct: host or cells: E. coli BL21(DE3)
The experiment in a line: Thioflavin T (ThT) fluorescence assay of Aβ40 fibrillization. The assay is classed as biochemical. The following applies: 50 μM Aβ40, bexarotene 17 and 50 μM, 35 μM ThT, 40 mM sodium phosphate pH 7.4, 37 °C, ex 442/em 488 nm, 15 h. Here is the method:
To monitor the evolution of fibrillization and the overall impact of bexarotene, we employed the fluorescence intensity emitted at 488 nm by the dye thioflavin T (ThT) in the presence of Aβ sheets, which is expected to scale the total amyloid mass ([42]).
The stock solution of ThT was prepared by dissolving ThT (Sigma–Aldrich) in ethanol (Decon Labs) and filtering through […] polyethersulfone syringe filter. […] For control experiment, ammonium acetate solution in a volume equivalent to the peptides volume was added to the growth buffer instead of Aβ40 peptides. […] The ThT fluorescence signal was measured at 37 °C (with mixing every 5 min) every 15 min with excitation and emission at 442 and 488 nm, respectively, for a period of 15 h using SpectraMax Gemini EM Microplate Reader (Molecular Devices). The sigmoid curves were obtained by subtracting the […] of the control and normalizing all the data points to their maximum value.
Thioflavin T (ThT) fluorescence assay. […] The concentration was determined by measuring the absorbance at 416 nm using the extinction coefficient of 26.6 mM^-1 cm^-1. […] The ThT fluorescence signal was measured at 37 °C (with mixing every 5 minutes) every 15 minutes with excitation and emission at 442 nm and 488 nm, respectively, for a time period of 15 hours using SpectraMax Gemini EM Microplate Reader (Molecular Devices). […]

In assay [2] the test system is Aβ42. As to conditions: cited from earlier work.
In assay [3] the target is T2, Aβ40 peptides (Homo sapiens, UniProt P05067).
T2 construct: host or cells: E. coli BL21(DE3)
The experiment in a line: Complexation of Aβ40 with bexarotene (UV absorbance titration at 280 nm). The assay is classed as binding. As to conditions: 156 μM Aβ40 in ammonium acetate titrated with 20 aliquots of 142 μM bexarotene; absorbance at 280 nm vs sum of individual absorbances. Here is the method: This addition was repeated 20 times.
Complexation of Aβ40 with bexarotene. To determine the extinction coefficient of bexarotene at 280 nm, we measured the absorbance of bexarotene at 14 gradually decreasing concentrations (Fig. S2A). The stock solution of bexarotene (0.2 mM) was diluted in ammonium acetate to achieve the desired concentrations. Then, the correlation between absorbance and bexarotene concentration was plotted and the extinction coefficient was obtained from the slope of the best linear regression fit (ε280 = 10370 ± 83 M^-1 cm^-1).
This addition was repeated 20 times, and at each step, a spectrum was collected using DU 800 Spectrophotometer (Beckman Coulter).

In assay [4] the target is T3, Aβ40 fibrils with structure imposed by bexarotene (bexarotene fibrils) (Homo sapiens, UniProt P05067).
T3 construct: host or cells: E. coli BL21(DE3)
The experiment in a line: Time-resolved in situ AFM: growth rate of bexarotene fibrils after adding bexarotene. The format is biochemical. As to conditions: 3 μM Aβ40, 1 μM bexarotene, 27 °C.
Procedure: To prepare samples for AFM growth rate measurements, 2 μl of second-generation normal (or bexarotene) fibrils was added to the fibril growth buffer. Urea (Sigma–Aldrich) was also added to the solution, to a final concentration of 1 M, if needed based on the experiments. The diluted fibril solution then was sonicated (6 W output) for 2 min with 15 s intervals on ice and was kept at 27 °C for at least 15 min to equilibrate the temperature. Then Aβ40 peptides were added to the fibril solution at a desired final concentration, and the total volume of the solution was adjusted to 1 ml.
Multimode atomic force microscope (Nanoscope VIII or IV; Bruker) in tapping mode was used to monitor the growth of fibrils. To collect images, 500 μl of the prepared sample was injected into the AFM liquid cell over freshly cut mica (Ted Pella, Inc) attached to a 15 mm metal disk (Ted Pella, Inc), and to avoid any leakage, an O-ring was inserted firmly to the liquid cell. The temperature in the liquid cell reached equilibrium of 27.0 ± 0.1 °C within 15 min, higher than room temperature (ca. 22 °C), because of heating by the AFM scanner and laser ([69], [70], [71]). Height, amplitude, and phase images were collected in image sizes ranged from 2 μm × 2 μm to 8 μm × 8 μm, and scan rates range between 3 and 3.5 s^−1 in most images. […]

Assay [5] addresses T4, Aβ40 fibrils nucleated in the absence of bexarotene (normal fibrils) (Homo sapiens, UniProt P05067).
T4 construct: host or cells: E. coli BL21(DE3)
The experiment in a line: Time-resolved in situ AFM: growth rate of normal Aβ40 fibrils after adding bexarotene. The format is biochemical. As to conditions: 3 μM Aβ40, bexarotene 0.1, 0.5 and 1.0 μM, 27 °C, about 30 measurements per concentration.
Procedure: We deposit fibrils preformed in the absence of bexarotene on mica and monitor the growth of the fibril tips along the fibril axis with respect to immobile reference points (Fig. 2B) in Aβ40 solutions with known concentrations. We evaluate the fibril growth rate as the slope of the time correlation of the fibril tip displacement (Fig. 2C) ([41]). […] Fibril growth comprises association of peptide chains to fibril tips.
To prepare samples for AFM growth rate measurements, 2 μl of second-generation normal (or bexarotene) fibrils was added to the fibril growth buffer. Urea (Sigma–Aldrich) was also added to the solution, to a final concentration of 1 M, if needed based on the experiments. The diluted fibril solution then was sonicated (6 W output) for 2 min with 15 s intervals on ice and was kept at 27 °C for at least 15 min to equilibrate the temperature. Then Aβ40 peptides were added to the fibril solution at a desired final concentration, and the total volume of the solution was adjusted to 1 ml. […]
To study the effect of bexarotene on normal and bexarotene fibril growth rates (Figs. 2D and 5D), first, a fibril suspension at 3 μM Aβ40 peptide concentration was prepared as described previously, without bexarotene, and the fibril growth was monitored with AFM in tapping mode for 15 to 30 min. […]

The values that follow come from PMC9720346, “Suppression of amyloid-β fibril growth by drug-engineered polymorph transformation” (The Journal of Biological Chemistry, 2022).

T4 sequence (P05067 671-711): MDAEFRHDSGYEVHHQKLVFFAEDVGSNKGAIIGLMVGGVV
T3 sequence (P05067 671-711): as above
T2 sequence (P05067 671-711): as above
T1 sequence (P05067 671-711): as above

Turning to `C=C(c1ccc(C(=O)O)cc1)c1cc2c(cc1C)C(C)(C)CCC2(C)C` [bexarotene], the “initial period of negligible ThT fluorescence (fibril nucleation delay)” value in assay [1] was “suppresses Aβ40 fibril nucleation”. Also, the “binding of bexarotene to Aβ42” value in assay [2] is on record as “undetectable binding”. For the same compound, the “binding of bexarotene to Aβ40 monomers (complex formation)” value in assay [3] is given as “does not perceptibly bind”. The “growth rate of bexarotene fibrils after adding bexarotene” value in assay [4] is listed as “does not inhibit or promote the growth”. Moreover, in assay [5], the “average growth rate of normal fibrils after adding bexarotene” value is “does not modify the average growth rates”.
